Assays:
Assay in all cases: Test D controlled growth environment herbicide test, pre- and postemergence
Format in all cases: in vivo
[1] = test system: Russian thistle (Salsola kali)
Source text: (§1) Seeds of plant species selected from bluegrass (annual bluegrass, Poa annua), blackgrass (Alopecurus myosuroides), Canada thistle (Cirsium arvense), canarygrass (Phalaris minor), chickweed (common chickweed, Stellaria media), geranium, cutleaf (cutleaf geranium, Geranium dissectum), galium (catchweed bedstraw, Galium aparine), bromegrass, downy (downy bromegrass, Bromus tectorum), field poppy (Papaver rhoeas), field violet (Viola arvensis), foxtail, green (green foxtail, Setaria viridis), deadnettle (henbit deadnettle, Lamium amplexicaule), ryegrass, Italian (Italian ryegrass, Lolium multiflorum), kochia (Kochia scoparia), lambsquarters (Chenopodium album), oilseed rape (Brassica napus), pigweed (Amaranthus retroflexus), chamomile (scentless chamomile, Matricaria inodora), Russian thistle (Salsola kali), speedwell (bird's-eye speedwell, Veronica persica), barley, spring (spring barley, Hordeum vulgare), wheat, spring (spring wheat, Triticum aestivum), buckwheat, wild (wild buckwheat, Polygonum convolvulus), mustard, wild (wild mustard, Sinapis arvensis), oat, wild (wild oat, Avena fatua), radish, wild (wild radish, Raphanus raphanistrum), windgrass (Apera spica-venti), barley, winter (winter barley, Hordeum vulgare), and wheat, winter (winter wheat, Triticum aestivum) were planted into a silt loam soil and treated preemergence with test chemicals formulated in a non-phytotoxic solvent mixture which included a surfactant.
(§2) At the same time, these species were planted in pots containing Redi-Earth® planting medium (Scotts Company, 14111 Scottslawn Road, Marysville, Ohio 43041) comprising spaghnum peat moss, vermiculite, wetting agent and starter nutrients and treated with postemergence applications of the test chemicals formulated in the same manner. Plants ranged in height from 2 to 18 cm (1- to 4-leaf stage). Treated plants and controls were maintained in a controlled growth environment for 14 to 21 d after which time all species were compared to controls and visually evaluated. Plant response ratings, summarized in Table D, are based on a scale of 0 to 100 where 0 is no effect and 100 is complete control. A dash (-) response means no test result.

[2] = test system: barley, spring (spring barley, Hordeum vulgare)
Source text: as §1, §2

[3] = test system: bluegrass (annual bluegrass, Poa annua)
Source text: as §1, §2

[4] = test system: deadnettle (henbit deadnettle, Lamium amplexicaule)
Source text: as §1, §2

[5] = test system: field violet (Viola arvensis)
Source text: as §1, §2

[6] = test system: foxtail, green (green foxtail, Setaria viridis)
Source text: as §1, §2

[7] = test system: kochia (Kochia scoparia)
Source text: as §1, §2

[8] = test system: mustard, wild (wild mustard, Sinapis arvensis)
Source text: as §1, §2

[9] = test system: oat, wild (wild oat, Avena fatua)
Source text: as §1, §2

[10] = test system: pigweed (Amaranthus retroflexus)
Source text: as §1, §2

[11] = test system: wheat, spring (spring wheat, Triticum aestivum)
Source text: as §1, §2

[12] = test system: wheat, winter (winter wheat, Triticum aestivum)
Source text: as §1, §2

[13] = test system: windgrass (Apera spica-venti)
Source text: as §1, §2

[14] = Postemergence, 31 g ai/ha, scale 0 to 100 (0 no effect, 100 complete control)
[15] = Postemergence, 125 g ai/ha, visual rating on scale 0 (no effect) to 100 (complete control), 14 to 21 d
[16] = Postemergence, 250 g ai/ha, scale 0 to 100 (0 no effect, 100 complete control)
[17] = Preemergence, 62 g ai/ha, scale 0 to 100 (0 no effect, 100 complete control)
[18] = Preemergence, 125 g ai/ha, scale 0 to 100 (0 no effect, 100 complete control)
[19] = Preemergence, 250 g ai/ha, scale 0 to 100 (0 no effect, 100 complete control)
[20] = postemergence, 62 g ai/ha, scale 0 to 100, 0 no effect, 100 complete control

CC(=O)Oc1c(C)nn(C)c(=O)c1-c1c(C)sc2ccc(C)cc12 [Compound 25]
Russian Thistle plant response rating [1, 14]: 70
Plant response rating, Russian Thistle [1, 15]: 80
Plant response rating, Russian Thistle [1, 16]: 90
Plant response rating (scale of 0 to 100), Russian Thistle ([1]; Preemergence, 31 g ai/ha): 10
Plant response rating, Russian Thistle [1, 17]: 25
Plant response rating, Russian Thistle [1, 18]: 40
Plant response rating, Russian Thistle [1, 19]: 90
Plant response rating, Russian Thistle [1, 20]: 75
Plant response rating, Barley, Spring [2, 14]: 0
Plant response rating, Barley, Spring [2, 15]: 0
Plant response rating, Barley, Spring [2, 16]: 10
Plant response rating (scale of 0 to 100), Barley, Spring ([2]; Preemergence, 31 g ai/ha): 0
Plant response rating, Barley, Spring [2, 17]: 0
Plant response rating, Barley, Spring [2, 18]: 0
Barley, Spring plant response rating [2, 19]: 0
Plant response rating, Barley, Spring [2, 20]: 0
Bluegrass plant response rating [3, 14]: 10
Plant response rating, Bluegrass [3, 15]: 30
Plant response rating, Bluegrass [3, 16]: 40
Plant response rating (scale of 0 to 100), Bluegrass ([3]; Preemergence, 31 g ai/ha): 25
Plant response rating, Bluegrass [3, 17]: 35
Plant response rating, Bluegrass [3, 18]: 40
Bluegrass plant response rating [3, 19]: 75
Plant response rating, Bluegrass [3, 20]: 20
Deadnettle plant response rating [4, 14]: 5
Plant response rating, Deadnettle [4, 15]: 20
Plant response rating, Deadnettle [4, 16]: 45
Plant response rating (scale of 0 to 100), Deadnettle ([4]; Preemergence, 31 g ai/ha): 0
Plant response rating, Deadnettle [4, 17]: 0
Plant response rating, Deadnettle [4, 18]: 0
Plant response rating, Deadnettle [4, 19]: 50
Plant response rating, Deadnettle [4, 20]: 10
Field Violet plant response rating [5, 14]: 65
Plant response rating, Field Violet [5, 15]: 85
Plant response rating, Field Violet [5, 16]: 95
Plant response rating (scale of 0 to 100), Field Violet ([5]; Preemergence, 31 g ai/ha): 90
Plant response rating, Field Violet [5, 17]: 100
Plant response rating, Field Violet [5, 18]: 100
Plant response rating, Field Violet [5, 19]: 100
Plant response rating, Field Violet [5, 20]: 75
Foxtail, Green plant response rating [6, 14]: 60
Plant response rating, Foxtail, Green [6, 15]: 70
Plant response rating, Foxtail, Green [6, 16]: 75
Plant response rating (scale of 0 to 100), Foxtail, Green ([6]; Preemergence, 31 g ai/ha): 35
Plant response rating, Foxtail, Green [6, 17]: 90
Plant response rating, Foxtail, Green [6, 18]: 95
Plant response rating, Foxtail, Green [6, 19]: 100
Plant response rating, Foxtail, Green [6, 20]: 65
Kochia plant response rating [7, 14]: 90
Plant response rating, Kochia [7, 15]: 100
Plant response rating, Kochia [7, 16]: 100
Plant response rating (scale of 0 to 100), Kochia ([7]; Preemergence, 31 g ai/ha): 0
Plant response rating, Kochia [7, 17]: 10
Plant response rating, Kochia [7, 18]: 40
Plant response rating, Kochia [7, 19]: 100
Plant response rating, Kochia [7, 20]: 95
Mustard, Wild plant response rating [8, 14]: 20
Plant response rating, Mustard, Wild [8, 15]: 70
Plant response rating, Mustard, Wild [8, 16]: 85
Plant response rating (scale of 0 to 100), Mustard, Wild ([8]; Preemergence, 31 g ai/ha): 0
Plant response rating, Mustard, Wild [8, 17]: 0
Plant response rating, Mustard, Wild [8, 18]: 20
Plant response rating, Mustard, Wild [8, 19]: 60
Plant response rating, Mustard, Wild [8, 20]: 40
Oat, Wild plant response rating [9, 14]: 75
Plant response rating, Oat, Wild [9, 15]: 90
Plant response rating, Oat, Wild [9, 16]: 90
Plant response rating (scale of 0 to 100), Oat, Wild ([9]; Preemergence, 31 g ai/ha): 85
Plant response rating, Oat, Wild [9, 17]: 90
Plant response rating, Oat, Wild [9, 18]: 95
Plant response rating, Oat, Wild [9, 19]: 100
Plant response rating, Oat, Wild [9, 20]: 80
Pigweed plant response rating [10, 14]: 80
Plant response rating, Pigweed [10, 15]: 95
Plant response rating, Pigweed [10, 16]: 100
Plant response rating (scale of 0 to 100), Pigweed ([10]; Preemergence, 31 g ai/ha): 100
Plant response rating, Pigweed [10, 17]: 100
Plant response rating, Pigweed [10, 18]: 100
Plant response rating, Pigweed [10, 19]: 100
Plant response rating, Pigweed [10, 20]: 100
Wheat, Spring plant response rating [11, 14]: 0
Plant response rating, Wheat, Spring [11, 15]: 15
Plant response rating, Wheat, Spring [11, 16]: 20
Plant response rating (scale of 0 to 100), Wheat, Spring ([11]; Preemergence, 31 g ai/ha): 0
Plant response rating, Wheat, Spring [11, 17]: 0
Plant response rating, Wheat, Spring [11, 18]: 10
Plant response rating, Wheat, Spring [11, 19]: 25
Plant response rating, Wheat, Spring [11, 20]: 0
Wheat, Winter plant response rating [12, 14]: 0
Plant response rating, Wheat, Winter [12, 15]: 5
Plant response rating, Wheat, Winter [12, 16]: 20
Plant response rating (scale of 0 to 100), Wheat, Winter ([12]; Preemergence, 31 g ai/ha): 0
Plant response rating, Wheat, Winter [12, 17]: 0
Plant response rating, Wheat, Winter [12, 18]: 0
Plant response rating, Wheat, Winter [12, 19]: 20
Plant response rating, Wheat, Winter [12, 20]: 0
Windgrass plant response rating [13, 14]: 70
Plant response rating, Windgrass [13, 15]: 85
Plant response rating, Windgrass [13, 16]: 85
Plant response rating (scale of 0 to 100), Windgrass ([13]; Preemergence, 31 g ai/ha): 75
Plant response rating, Windgrass [13, 17]: 85
Plant response rating, Windgrass [13, 18]: 100
Plant response rating, Windgrass [13, 19]: 100
Plant response rating, Windgrass [13, 20]: 75

— patent US10597388B2, “Pyridazinone herbicides” (FMC CORPORATION, priority 2014, dated 2020)
